# Assay results taken from ChEMBL document CHEMBL1949621, “Fluorocyclines. 1. 7-fluoro-9-pyrrolidinoacetamido-6-demethyl-6-deoxytetracycline: a potent, broad spectrum antibacterial agent” (J Med Chem, 2012).
# How the values were obtained:
# Escherichia coli [1] = assay: Ratio of tetracycline IC50 to compound IC50 for Escherichia coli ribosome-mediated translation; format: subcellular
# Bacterial 70S ribosome = assay: Inhibition of Escherichia coli ribosome-mediated translation after 60 mins by transcription/translation-coupled luciferase reporter gene assay; format: subcellular
# Staphylococcus aureus [2] = assay: Antibacterial activity against Staphylococcus aureus ATCC 101 29213; format: functional
# Staphylococcus aureus [3] = assay: Antibacterial activity against tetracycline- and methicillin-resistant Staphylococcus aureus 161; format: functional
# Staphylococcus aureus [4] = assay: microbe, parasite or virus in culture; format: functional; settings: 158
# Enterococcus faecalis [5] = assay: Antibacterial activity against Enterococcus faecalis ATCC 103 29212; format: functional
# Enterococcus faecalis [6] = assay: Antibacterial activity against tetracycline-resistant Enterococcus faecalis 159; format: functional
# Streptococcus pneumoniae [7] = assay: microbe, parasite or virus in culture; format: functional; settings: ATCC 106 49619
# Description: Antibacterial activity against Streptococcus pneumoniae ATCC 106 49619
# Streptococcus pneumoniae [8] = assay: Antibacterial activity against tetracycline-resistant Streptococcus pneumoniae 160; format: functional
# Escherichia coli [9] = assay: Antibacterial activity against Escherichia coli ATCC 107 25922; format: functional
# Escherichia coli [10] = assay: Antibacterial activity against tetracycline-resistant Escherichia coli 155; format: functional
# Acinetobacter baumannii [11] = assay: Antibacterial activity against Acinetobacter baumannii ATCC 19606 110; format: functional
# Pseudomonas aeruginosa = assay: Antibacterial activity against Pseudomonas aeruginosa ATCC 111 27853; format: functional
# Enterobacter cloacae = assay: Antibacterial activity against Enterobacter cloacae ATCC 108 13047; format: functional
# Klebsiella pneumoniae [12] = assay: Antibacterial activity against Klebsiella pneumoniae ATCC 109 13883; format: functional
# Klebsiella pneumoniae [13] = assay: Antibacterial activity against tetracycline-resistant Klebsiella pneumoniae 153; format: functional
# Staphylococcus aureus [14] = assay: Ratio of tigecycline MIC to compound MIC for Staphylococcus aureus ATCC 101 29213; format: functional
# Enterococcus faecalis [15] = assay: Ratio of tigecycline MIC to compound MIC for Enterococcus faecalis ATCC 103 29212; format: functional
# Escherichia coli [16] = assay: Ratio of tigecycline MIC to compound MIC for Escherichia coli ATCC 107 25922; format: functional
# Acinetobacter baumannii [17] = assay: Ratio of tigecycline MIC to compound MIC for Acinetobacter baumannii ATCC 19606 110; format: functional
# Escherichia coli [18] = assay: Antibacterial activity against tetracycline-resistant Escherichia coli 133 infected in iv dosed CD-1 mouse assessed as protection from infection administered 1 hr post infection measured after 24 hrs; format: functional; settings: Escherichia coli, 133, iv; read-out: PD50
# Escherichia coli [19] = assay: Antibacterial activity against tetracycline-resistant Escherichia coli 133 infected in iv dosed CD-1 mouse assessed as reduction in bacterial burden administered 1 hr post infection measured after 24 hrs; format: functional
# Staphylococcus aureus [20] = assay: Antibacterial activity against tetracycline-resistant Staphylococcus aureus 191 infected in iv dosed CD-1 mouse assessed as dose required for 1 log bacterial burden reduction administered 1.5 hr post infection measured after 24 hrs; format: functional
# Staphylococcus aureus [21] = assay: Antibacterial activity against tetracycline-resistant Staphylococcus aureus 191 infected in iv dosed CD-1 mouse assessed as dose required for 3 log bacterial burden reduction administered 1.5 hr post infection measured after 24 hrs; format: functional
# Staphylococcus aureus [22] = assay: Antibacterial activity against tetracycline-resistant Staphylococcus aureus 191 infected in iv dosed CD-1 mouse assessed as reduction in bacterial burden administered 1.5 hr post infection measured after 24 hrs; format: functional
# [23] = (§1) Clearance in Sprague-Dawley rat at 1 mg/kg, iv by LC/MS-MS analysis; format: ADME, organism-based; set-up: dose 1 mg/kg, route intravenous; settings: Sprague-Dawley, in vivo
# [24] = Apparent volume of distribution in Sprague-Dawley rat at 1 mg/kg, iv by LC/MS-MS analysis; settings: in vivo
# [25] = Elimination half life in Sprague-Dawley rat at 1 mg/kg, iv by LC/MS-MS analysis; format: ADME, organism-based; set-up: dose 1 mg/kg, route intravenous; settings: in vivo, read-out: beta t1/2 (converted)
# [26] = Elimination half life in Sprague-Dawley rat at 10 mg/kg, po by LC/MS-MS analysis; format: ADME, organism-based; set-up: dose 10 mg/kg, route oral; settings: in vivo, read-out: beta t1/2 (converted)
# [27] = AUClast in Sprague-Dawley rat at 1 mg/kg, iv by LC/MS-MS analysis; format: ADME, organism-based; set-up: time 0 - last, dose 1 mg/kg, route intravenous; settings: plasma
# [28] = AUClast in Sprague-Dawley rat at 10 mg/kg, po by LC/MS-MS analysis; format: ADME, organism-based; set-up: dose 10 mg/kg, route oral, time 0 - last; settings: plasma
# [29] = Oral bioavailability in Sprague-Dawley rat at 10 mg/kg by LC/MS-MS analysis; format: ADME, organism-based; settings: in vivo
# Rattus norvegicus = assay: as §1; format: ADME, organism-based; set-up: dose 1 mg/kg, route intravenous; settings: in vivo
# [30] = Oral bioavailability in human; format: ADME, organism-based; settings: in vivo
Compound,IC50 (Bacterial 70S ribosome),MIC (Staphylococcus aureus [2]),MIC (Staphylococcus aureus [3]),MIC (Staphylococcus aureus [4]),MIC (Enterococcus faecalis [5]),MIC (Enterococcus faecalis [6]),MIC (Streptococcus pneumoniae [7]),MIC (Streptococcus pneumoniae [8]),MIC (Escherichia coli [9]),MIC (Escherichia coli [10]),MIC (Acinetobacter baumannii [11]),MIC (Pseudomonas aeruginosa),MIC (Enterobacter cloacae),MIC (Klebsiella pneumoniae [12]),MIC (Klebsiella pneumoniae [13]),Activity (Staphylococcus aureus [20]),Activity (Staphylococcus aureus [21]),AUC(0-t) [27],AUC(0-t) [28],bioavailability [29],other results
CN(C)[C@@H]1C(O)=C(C(N)=O)C(=O)[C@@]2(O)C(O)=C3C(=O)c4c(O)c(NC(=O)CN5CCCC5)cc(F)c4C[C@H]3C[C@@H]12 [ERAVACYCLINE],620 nM,0.0156 µg/mL,0.0156 µg/mL,0.0156 µg/mL,0.0156 µg/mL,0.0156 µg/mL,0.0156 µg/mL,0.0156 µg/mL,0.0156 µg/mL,1 µg/mL,0.0312 µg/mL,8 µg/mL,0.125 µg/mL,0.125 µg/mL,0.5 µg/mL,0.6 mg/kg,3 mg/kg,1770 ng·h/mL,295 ng·h/mL,1.7%,Ratio IC50 (Escherichia coli [1]): 7; Ratio (Staphylococcus aureus [14]): 4; Ratio (Enterococcus faecalis [15]): 4; Ratio (Escherichia coli [16]): 4; Ratio (Acinetobacter baumannii [17]): 4; ED50 (Escherichia coli [18]): 1.3 mg/kg; MIC (Escherichia coli [19]): 0.125 µg/mL; MIC (Staphylococcus aureus [22]): 0.25 µg/mL; clearance [23]: 9.4 mL/min/kg; Vd [24]: 3.2 L/kg; half-life [25]: 4 h; half-life [26]: 6.9 h
CN[C@H](CC(C)C)C(=O)N[C@H]1C(=O)N[C@@H](CC(N)=O)C(=O)N[C@H]2C(=O)N[C@H]3C(=O)N[C@H](C(=O)N[C@H](C(=O)O)c4cc(O)cc(O)c4-c4cc3ccc4O)[C@H](O)c3ccc(c(Cl)c3)Oc3cc2cc(c3O[C@@H]2O[C@H](CO)[C@@H](O)[C@H](O)[C@H]2O[C@H]2C[C@](C)(N)[C@H](O)[C@H](C)O2)Oc2ccc(cc2Cl)[C@H]1O [VANCOMYCIN],,,,,,,,,,,,,,,,0.75 mg/kg,10 mg/kg,,,,
CN(C)[C@@H]1C(O)=C(C(N)=O)C(=O)[C@@]2(O)C(O)=C3C(=O)c4c(O)cccc4[C@@](C)(O)[C@H]3C[C@@H]12 [TETRACYCLINE],4580 nM,0.125 µg/mL,64 µg/mL,,16 µg/mL,64 µg/mL,0.25 µg/mL,,> 1 µg/mL,> 64 µg/mL,1 µg/mL,16 µg/mL,1 µg/mL,2 µg/mL,> 64 µg/mL,,,3080 ng·h/mL,4540 ng·h/mL,14.9%,CL (Rattus norvegicus): 9.03 mL/min/kg; bioavailability [30]: 60%
CN(C)c1cc(NC(=O)CNC(C)(C)C)c(O)c2c1C[C@H]1C[C@H]3[C@H](N(C)C)C(O)=C(C(N)=O)C(=O)[C@@]3(O)C(O)=C1C2=O [TIGECYCLINE],,0.0625 µg/mL,0.125 µg/mL,0.125 µg/mL,0.0625 µg/mL,0.0625 µg/mL,0.0156 µg/mL,0.0156 µg/mL,0.125 µg/mL,1 µg/mL,0.5 µg/mL,16 µg/mL,0.25 µg/mL,0.25 µg/mL,1 µg/mL,3 mg/kg,17.3 mg/kg,1050 ng·h/mL,107 ng·h/mL,1%,ED50 (Escherichia coli [18]): 3.5 mg/kg; MIC (Escherichia coli [19]): 0.125 µg/mL; MIC (Staphylococcus aureus [22]): 0.25 µg/mL; half-life [26]: 3.98 h
